Test results: the supplement of paper PMC10307832

Tests used:
Assay in all cases: relative viability (nuclei count vs DMSO), 5 days (fraction); higher = more cells survive
COR-L23 = test system: COR-L23
How it was run: (§1)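 Lung cancer cell lines were pin-tool dosed in 1536-well plates on the day after seeding, with either a lone drug or a fixed anchor-drug dose plus five library-drug doses (not always all listed) in √10 steps. Nuclei were counted on 4× images after 5 days. Relative viability is the ratio of treated-well to vehicle-well nuclei counts, with each value a median of duplicate plates.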

ChaGo-K-1 = test system: ChaGo-K-1
How it was run: as §1

EMC-BAC-2 = test system: EMC-BAC-2
How it was run: as §1

EPLC-272H = test system: EPLC-272H
How it was run: as §1

H3255 = test system: H3255
How it was run: as §1

HCC-44 = test system: HCC-44
How it was run: as §1

HCC-827 = test system: HCC-827
How it was run: as §1

LCLC-103H = test system: LCLC-103H
How it was run: as §1

LU99A = test system: LU99A
How it was run: as §1

NCI-H1395 = test system: NCI-H1395
How it was run: as §1

NCI-H1651 = test system: NCI-H1651
How it was run: as §1

NCI-H1793 = test system: NCI-H1793
How it was run: as §1

NCI-H1944 = test system: NCI-H1944
How it was run: as §1

NCI-H2023 = test system: NCI-H2023
How it was run: as §1

NCI-H2085 = test system: NCI-H2085
How it was run: as §1

NCI-H2087 = test system: NCI-H2087
How it was run: as §1

NCI-H2405 = test system: NCI-H2405
How it was run: as §1

NCI-H520 = test system: NCI-H520
How it was run: as §1

NCI-H650 = test system: NCI-H650
How it was run: as §1

NCI-H838 = test system: NCI-H838
How it was run: as §1

SK-MES-1 = test system: SK-MES-1
How it was run: as §1

Compound: COc1cc2nccc(Oc3ccc(NC(=O)Nc4cc(C)on4)c(Cl)c3)c2cc1OC [Tivozanib] + Nc1ncn([C@H]2C[C@H](O)[C@@H](CO)O2)c(=O)n1 [Decitabine] (partner 2 µM)
- relative viability (COR-L23; first compound 0.005 µM): 0.391
- relative viability (COR-L23; first compound 0.01581 µM): 0.398
- relative viability (COR-L23; first compound 0.05 µM): 0.403
- relative viability (COR-L23; first compound 0.1581 µM): 0.317
- relative viability (COR-L23; first compound 0.5 µM): 0.372
- relative viability (ChaGo-K-1; first compound 0.005 µM): 0.458
- relative viability (ChaGo-K-1; first compound 0.01581 µM): 0.498
- relative viability (ChaGo-K-1; first compound 0.05 µM): 0.515
- relative viability (ChaGo-K-1; first compound 0.1581 µM): 0.543
- relative viability (ChaGo-K-1; first compound 0.5 µM): 0.489
- relative viability (EMC-BAC-2; first compound 0.005 µM): 1.02
- relative viability (EMC-BAC-2; first compound 0.01581 µM): 0.977
- relative viability (EMC-BAC-2; first compound 0.05 µM): 0.952
- relative viability (EMC-BAC-2; first compound 0.1581 µM): 0.927
- relative viability (EMC-BAC-2; first compound 0.5 µM): 0.975
- relative viability (EPLC-272H; first compound 0.005 µM): 0.342
- relative viability (EPLC-272H; first compound 0.01581 µM): 0.416
- relative viability (EPLC-272H; first compound 0.05 µM): 0.391
- relative viability (EPLC-272H; first compound 0.1581 µM): 0.409
- relative viability (EPLC-272H; first compound 0.5 µM): 0.365
- relative viability (H3255; first compound 0.005 µM): 0.541
- relative viability (H3255; first compound 0.01581 µM): 0.592
- relative viability (H3255; first compound 0.05 µM): 0.591
- relative viability (H3255; first compound 0.1581 µM): 0.552
- relative viability (H3255; first compound 0.5 µM): 0.77
- relative viability (HCC-44; first compound 0.005 µM): 0.92
- relative viability (HCC-44; first compound 0.01581 µM): 0.964
- relative viability (HCC-44; first compound 0.05 µM): 0.956
- relative viability (HCC-44; first compound 0.1581 µM): 0.982
- relative viability (HCC-44; first compound 0.5 µM): 0.937
- relative viability (HCC-827; first compound 0.005 µM): 0.264
- relative viability (HCC-827; first compound 0.01581 µM): 0.345
- relative viability (HCC-827; first compound 0.05 µM): 0.311
- relative viability (HCC-827; first compound 0.1581 µM): 0.289
- relative viability (HCC-827; first compound 0.5 µM): 0.268
- relative viability (LCLC-103H; first compound 0.005 µM): 0.615
- relative viability (LCLC-103H; first compound 0.01581 µM): 0.708
- relative viability (LCLC-103H; first compound 0.05 µM): 0.732
- relative viability (LCLC-103H; first compound 0.1581 µM): 0.685
- relative viability (LCLC-103H; first compound 0.5 µM): 0.744
- relative viability (LU99A; first compound 0.005 µM): 1.04
- relative viability (LU99A; first compound 0.01581 µM): 0.769
- relative viability (LU99A; first compound 0.05 µM): 0.894
- relative viability (LU99A; first compound 0.1581 µM): 0.679
- relative viability (LU99A; first compound 0.5 µM): 0.758
- relative viability (NCI-H1395; first compound 0.005 µM): 0.671
- relative viability (NCI-H1395; first compound 0.01581 µM): 0.672
- relative viability (NCI-H1395; first compound 0.05 µM): 0.732
- relative viability (NCI-H1395; first compound 0.1581 µM): 0.713
- relative viability (NCI-H1395; first compound 0.5 µM): 0.617
- relative viability (NCI-H1651; first compound 0.005 µM): 0.572
- relative viability (NCI-H1651; first compound 0.01581 µM): 0.551
- relative viability (NCI-H1651; first compound 0.05 µM): 0.675
- relative viability (NCI-H1651; first compound 0.1581 µM): 0.438
- relative viability (NCI-H1651; first compound 0.5 µM): 0.524
- relative viability (NCI-H1793; first compound 0.005 µM): 0.474
- relative viability (NCI-H1793; first compound 0.01581 µM): 0.518
- relative viability (NCI-H1793; first compound 0.05 µM): 0.562
- relative viability (NCI-H1793; first compound 0.5 µM): 0.481
- relative viability (NCI-H1944; first compound 0.005 µM): 0.402
- relative viability (NCI-H1944; first compound 0.01581 µM): 0.473
- relative viability (NCI-H1944; first compound 0.05 µM): 0.447
- relative viability (NCI-H1944; first compound 0.1581 µM): 0.459
- relative viability (NCI-H1944; first compound 0.5 µM): 0.416
- relative viability (NCI-H2023; first compound 0.005 µM): 0.223
- relative viability (NCI-H2023; first compound 0.01581 µM): 0.219
- relative viability (NCI-H2023; first compound 0.05 µM): 0.24
- relative viability (NCI-H2023; first compound 0.1581 µM): 0.242
- relative viability (NCI-H2023; first compound 0.5 µM): 0.213
- relative viability (NCI-H2085; first compound 0.005 µM): 0.536
- relative viability (NCI-H2085; first compound 0.01581 µM): 0.609
- relative viability (NCI-H2085; first compound 0.05 µM): 0.619
- relative viability (NCI-H2085; first compound 0.1581 µM): 0.578
- relative viability (NCI-H2085; first compound 0.5 µM): 0.562
- relative viability (NCI-H2087; first compound 0.005 µM): 0.275
- relative viability (NCI-H2087; first compound 0.01581 µM): 0.249
- relative viability (NCI-H2087; first compound 0.05 µM): 0.352
- relative viability (NCI-H2087; first compound 0.1581 µM): 0.254
- relative viability (NCI-H2087; first compound 0.5 µM): 0.348
- relative viability (NCI-H2405; first compound 0.005 µM): 0.676
- relative viability (NCI-H2405; first compound 0.01581 µM): 0.771
- relative viability (NCI-H2405; first compound 0.05 µM): 0.756
- relative viability (NCI-H2405; first compound 0.1581 µM): 0.706
- relative viability (NCI-H2405; first compound 0.5 µM): 0.591
- relative viability (NCI-H520; first compound 0.005 µM): 0.442
- relative viability (NCI-H520; first compound 0.01581 µM): 0.448
- relative viability (NCI-H520; first compound 0.05 µM): 0.444
- relative viability (NCI-H520; first compound 0.1581 µM): 0.56
- relative viability (NCI-H520; first compound 0.5 µM): 0.351
- relative viability (NCI-H650; first compound 0.005 µM): 0.296
- relative viability (NCI-H650; first compound 0.01581 µM): 0.299
- relative viability (NCI-H650; first compound 0.05 µM): 0.35
- relative viability (NCI-H650; first compound 0.1581 µM): 0.312
- relative viability (NCI-H650; first compound 0.5 µM): 0.294
- relative viability (NCI-H838; first compound 0.005 µM): 0.431
- relative viability (NCI-H838; first compound 0.01581 µM): 0.499
- relative viability (NCI-H838; first compound 0.05 µM): 0.446
- relative viability (NCI-H838; first compound 0.1581 µM): 0.482
- relative viability (NCI-H838; first compound 0.5 µM): 0.428
- relative viability (SK-MES-1; first compound 0.005 µM): 0.363
- relative viability (SK-MES-1; first compound 0.01581 µM): 0.363
- relative viability (SK-MES-1; first compound 0.05 µM): 0.371
- relative viability (SK-MES-1; first compound 0.1581 µM): 0.393
- relative viability (SK-MES-1; first compound 0.5 µM): 0.435
